The target of one test is T1, Human M4 (Homo sapiens, UniProt P08173).
T1 construct: expressed in transfected cells; host or cells: CHO-K1 (Chinese hamster ovary, ATCC), stably expressing M4 and Gqi5
T1 sequence (P08173 1-479): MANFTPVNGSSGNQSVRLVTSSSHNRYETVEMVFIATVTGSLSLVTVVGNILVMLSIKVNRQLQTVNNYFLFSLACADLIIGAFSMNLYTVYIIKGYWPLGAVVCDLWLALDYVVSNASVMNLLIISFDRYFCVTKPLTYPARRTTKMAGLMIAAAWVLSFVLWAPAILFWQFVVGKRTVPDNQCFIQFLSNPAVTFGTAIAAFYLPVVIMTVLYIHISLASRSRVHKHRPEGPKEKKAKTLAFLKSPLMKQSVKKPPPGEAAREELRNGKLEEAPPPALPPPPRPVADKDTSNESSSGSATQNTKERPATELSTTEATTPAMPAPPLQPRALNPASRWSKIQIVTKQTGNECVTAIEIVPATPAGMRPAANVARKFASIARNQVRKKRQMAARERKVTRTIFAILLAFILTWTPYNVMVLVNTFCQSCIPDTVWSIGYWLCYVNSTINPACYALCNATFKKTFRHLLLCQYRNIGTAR
Nature of the test: mAChR M4 cell-based functional assay (calcium flux, EC80 acetylcholine response). As for the experimental part:
Human or rat M4 cDNA, along with the chimeric G protein Gqi5, were transfected into Chinese hamster ovary (CHO-K1) cells purchased from the American Type Culture Collection using Lipofectamine2000. M4/Gqi5/CHO cells were grown in Ham's F-12 medium containing […] heat-inactivated fetal bovine serum (FBS), 20 mM HEPES, 500 μg/mL G418 sulfate, and 200 μg/mL Hygromycin B.
For high throughput measurement of agonist-evoked increases in intracellular calcium, CHO-K1 cells stably expressing muscarinic receptors were plated in growth medium lacking G418 and hygromycin at 15,000 cells/20 μL/well in Greiner 384-well black-walled, tissue culture (TC)-treated, clear-bottom plates (VWR). Cells were incubated overnight at 37° C. and 500 CO2. […] Compound master plates were formatted in a 10 point concentration-response curve (CRC) format (1:3 dilutions) in 100% DMSO with a starting concentration of 10 or 1 mM using a BRAVO liquid handler (Agilent). Test compound CRCs were then transferred to daughter plates (240 nL) using the Echo acoustic plate reformatter (Labcyte, Sunnyvale, CA) and then diluted into assay buffer (40 μL) to a 2× stock using a Thermo Fisher Combi (Thermo Fisher Scientific, Waltham, MA).
Calcium flux was measured using the Functional Drug Screening System (FDSS) 6000 or 7000 (Hamamatsu Corporation, Tokyo, Japan) as an increase in the fluorescent static ratio. Compounds were applied to cells (20 μL, 2×) using the automated system of the FDSS at 2 seconds into the protocol and the data were collected at 1 Hz. […] Agonist activity was analyzed as a concentration-dependent increase in calcium mobilization upon compound addition. Positive allosteric modulator activity was analyzed as a concentration-dependent increase in the EC20 acetylcholine response. Antagonist activity was analyzed as a concentration-dependent decrease in the EC80 acetylcholine response; for the purposes of the tables herein, an IC50 (inhibitory concentration 50) was calculated as a concentration-dependent decrease of the response elicited by an EC80 concentration of acetylcholine. Concentration-response curves were generated using a four-parameter logistical equation in XLFit curve fitting software (IDBS, Bridgewater, NJ) for Excel (Microsoft, Redmond, WA) or Prism (GraphPad Software, Inc., San Diego, CA) or the Dotmatics software platform (Dotmatics, Bishop's Stortford, UK).
Compounds were synthesized as described above.
A general note: Calcium assays in cells follow changes in intracellular calcium, usually with a dye or a luminescent sensor.

In test [1] the test system is catalepsy induced by the DA receptor antagonist haloperidol. Conditions: cited from earlier work.
Setting [2] is: M4/Gqi5/CHO-K1 cells, % ACh maximum at 30 μM, read-out: Human M4 Emin (% ACh maximum at 30 μM).
Where [3] appears, read: M4/Gqi5/CHO-K1 cells, decrease of the response to an EC80 concentration of acetylcholine, read-out: Human M4 IC50.

The source of these data is US20240174655A1, “INDAZOLE DERIVATIVES AS ANTAGONISTS OF THE MUSCARINIC ACETYLCHOLINE RECEPTOR M4” (Vanderbilt University, priority 2021, published 2024).

Where two headings read alike, the source gives them in different places.

Consider `[2H]C([2H])(C1CCOCC1(C)C)N1C[C@H]2C[C@H](Nc3ccc(-c4ccc5nn(C)cc5c4C)nn3)C[C@H]2C1` (stereo partly drawn) [compound 17, (3aR,5s,6aS)-N-(6-(2,4-dimethyl-2H-indazol-5-yl)pyridazin-3-yl)-2-((3,3-dimethyltetrahydro-2H-pyran-4-yl)methyl-d2)octahydrocyclopenta[c]pyrrol-5-amine], for which, on Human M4 (setting [2]), the remaining activity at 30 µM is 3%. In addition, the IC50 on Human M4 (setting [3]) was 0.9 nM.

Consider `[2H]C([2H])([C@H]1CCCOC1)N1C[C@H]2C[C@H](Nc3ccc(-c4ccc5nn(C)cc5c4C)nn3)C[C@H]2C1` [compound 14, (3aR,5s,6aS)-N-(6-(2,4-dimethyl-2H-indazol-5-yl)pyridazin-3-yl)-2-(((R)-tetrahydro-2H-pyran-3-yl)methyl-d2)octahydrocyclopenta-[c]pyrrol-5-amine], for which, on Human M4 (setting [2]), the remaining activity at 30 µM stood at 3%. Also, the IC50 at Human M4 (setting [3]) turned out to be 0.79 nM.

Regarding `Cc1c(-c2ccc(N[C@H]3C[C@@H]4CN(CC5CCOCC5)C[C@@H]4C3)nn2)ccc2nn(C)cc12` [compound 2, (3aR,5s,6aS)-N-(6-(2,4-dimethyl-2H-indazol-5-yl)pyridazin-3-yl)-2-((tetrahydro-2H-pyran-4-yl)methyl)octahydrocyclopenta[c]pyrrol-5-amine], the remaining activity at 30 µM at Human M4 (setting [2]) stood at 4%. In addition, the IC50 at Human M4 (setting [3]) is 0.41 nM.

Turning to `[2H]C([2H])([2H])N(c1cc(C(F)(F)F)c(-c2ccc3nn(C)cc3c2C)nn1)[C@H]1C[C@@H]2CN(CC3CCOCC3)C[C@@H]2C1` [compound 5, (3aR,5s,6aS)-N-(6-(2,4-dimethyl-2H-indazol-5-yl)-5-(trifluoromethyl)pyridazin-3-yl)-N-(methyl-d3)-2-((tetrahydro-2H-pyran-4-yl)methyl)octahydrocyclopenta[c]pyrrol-5-amine], the remaining activity at 30 µM at Human M4 (setting [2]) turned out to be 3%. In addition, the IC50 on Human M4 (setting [3]) was 130 nM.

`[2H]C([2H])([C@H]1COCCO1)N1C[C@H]2C[C@H](Nc3ccc(-c4ccc5nn(C)cc5c4C)nn3)C[C@H]2C1` [compound 15, (3aR,5s,6aS)-2-(((S)-1,4-dioxan-2-yl)-methyl-d2)-N-(6-(2,4-dimethyl-2H-indazol-5-yl)-pyridazin-3-yl)octahydrocyclopenta[c]pyrrol-5-amine]: at Human M4 (setting [2]), the remaining activity at 30 µM came to 3%. In addition, the 50% inhibitory concentration (IC50) at Human M4 (setting [3]) was determined as 0.42 nM.

`CN1[C@@H]2C[C@@H](OC(=O)[C@H](CO)c3ccccc3)C[C@H]1[C@@H]1O[C@@H]12` [scopolamine]: the “reduction of haloperidol-induced catalepsy” value in test [1] (M4 KO mice) is given as “ineffective”. Moreover, in test [1] (WT mice), the “reversal of haloperidol-induced catalepsy” value is listed as “completely reversed”.

In the case of `[2H]C1([2H])CC(C([2H])([2H])N2C[C@H]3C[C@H](Nc4ccc(-c5ccc6nn(C)cc6c5C)nn4)C[C@H]3C2)CC([2H])([2H])O1` [compound 21, (3aR,5s,6aS)-N-(6-(2,4-dimethyl-2H-indazol-5-yl)pyridazin-3-yl)-2-((tetrahydro-2H-pyran-4-yl-2,2,6,6-d4)methyl-d2)octahydrocyclopenta[c]pyrrol-5-amine], at Human M4 (setting [2]), the remaining activity at 30 µM is 3%. The half-maximal inhibitory concentration (IC50) on Human M4 (setting [3]) came out at 0.4 nM.

Consider `Cn1cc2c(C(F)(F)F)c(-c3ccc(N[C@H]4C[C@@H]5CN(CC6CCOCC6)C[C@@H]5C4)nn3)ccc2n1` [compound 7, (3aR,5s,6aS)-N-(6-(2-methyl-4-(trifluoromethyl)-2H-indazol-5-yl)pyridazin-3-yl)-2-((tetrahydro-2H-pyran-4-yl)methyl)octahydrocyclopenta[c]pyrrol-5-amine], for which the remaining activity at 30 µM on Human M4 (setting [2]) turned out to be 3%. At Human M4 (setting [3]), the half-inhibitory concentration (IC50) turned out to be 1.5 nM.

In the case of `[2H]C([2H])(C1CCOC(C)(C)C1)N1C[C@H]2C[C@H](Nc3ccc(-c4ccc5nn(C)cc5c4C)nn3)C[C@H]2C1` (stereo partly drawn) [compound 18, (3aR,5s,6aS)-N-(6-(2,4-dimethyl-2H-indazol-5-yl)pyridazin-3-yl)-2-((2,2-dimethyltetrahydro-2H-pyran-4-yl)methyl-d2)octahydrocyclopenta[c]pyrrol-5-amine], the remaining activity at 30 µM on Human M4 (setting [2]) stood at 4%. Further, on Human M4 (setting [3]), the concentration for half-maximal inhibition (IC50) stood at 0.99 nM.

Regarding `Cc1c(-c2nnc(N[C@H]3C[C@@H]4CN(CC5CCOCC5)C[C@@H]4C3)c3ccsc23)ccc2nn(C)cc12` [compound 25, 7-(2,4-dimethyl-2H-indazol-5-yl)-N-((3aR,5s,6aS)-2-((tetrahydro-2H-pyran-4-yl)methyl)-octahydrocyclopenta[c]pyrrol-5-yl)-thieno[2,3-d]pyridazin-4-amine], the concentration for half-maximal inhibition (IC50) at Human M4 came out at 0.5 nM. For the same molecule, the remaining activity at 30 µM at Human M4 (CHO-K1, read-out: Human M4 Emin (% ACh maximum at 30 μM)) was determined as 7%.

`[2H]C([2H])(C1CCOCC1)N1C[C@H]2C[C@H](Nc3ccc(-c4ccc5nn(C([2H])([2H])[2H])cc5c4C(F)F)nn3)C[C@H]2C1` [compound 22, (3aR,5s,6aS)-N-(6-(4-(difluoromethyl)-2-(methyl-d3)-2H-indazol-5-yl)pyridazin-3-yl)-2-((tetrahydro-2H-pyran-4-yl)methyl-d2)octahydrocyclopenta[c]pyrrol-5-amine]: the remaining activity at 30 µM at Human M4 (setting [2]) is 4%. The IC50 on Human M4 (setting [3]) came to 0.65 nM.

On to `[2H]C([2H])(N1C[C@H]2C[C@H](Nc3ccc(-c4ccc5nn(C)cc5c4C)nn3)C[C@H]2C1)C(F)(F)C1CCOCC1` [compound 23, (3aR,5s,6aS)-2-(2,2-difluoro-2-(tetrahydro-2H-pyran-4-yl)ethyl-1,1-d2)-N-(6-(2,4-dimethyl-2H-indazol-5-yl)-pyridazin-3-yl)octahydrocyclopenta[c]pyrrol-5-amine], for which the remaining activity at 30 µM on Human M4 (setting [2]) was 4%. For the same molecule, the IC50 at Human M4 (setting [3]) was found to be 1.8 nM.

For the molecule `Cc1cc(N[C@H]2C[C@@H]3CN(CC4CCOCC4)C[C@@H]3C2)nnc1-c1ccc2nn(C)cc2c1C` [compound 27, (3aR,5s,6aS)-N-(6-(2,4-dimethyl-2H-indazol-5-yl)-5-methylpyridazin-3-yl)-2-((tetrahydro-2H-pyran-4-yl)methyl)octahydrocyclopenta[c]pyrrol-5-amine], the remaining activity at 30 µM at Human M4 (setting [2]) was 3%. For the same molecule, the 50% inhibitory concentration (IC50) at Human M4 (setting [3]) is 0.76 nM.

`[2H]C([2H])(C1CCOCC1)N1C[C@H]2C[C@H](Nc3ccc(-c4ccc5nn(C)cc5c4C)nn3)C[C@H]2C1` [compound 6, (3aR,5s,6aS)-N-(6-(2,4-dimethyl-2H-indazol-5-yl)pyridazin-3-yl)-2-((tetrahydro-2H-pyran-4-yl)methyl-d2)octahydrocyclopenta[c]pyrrol-5-amine]: the remaining activity at 30 µM on Human M4 (setting [2]) was 3%. For the same molecule, the half-inhibitory concentration (IC50) on Human M4 (setting [3]) is 0.59 nM.

What is called IC50 is the concentration that inhibits the measured activity by half.
